Measurements: patent US4206116A, “Novel penicillins” (Bristol-Myers Company, priority 1978, dated 1980)
In brackets after ≈: the same amount, converted by molar mass. Several values for one entry are separate records, joined by “and”; a condition that tells them apart may be missing. Equal values may be shown once. Read-outs that look alike come from different tables or passages of the source.

Key:
E. cloacae A9656 = experiment: MIC, serial two-fold agar dilution, Mueller-Hinton agar; assay type: cell-based; details: Enterobacter cloacae
Method: (§1) Minimum inhibitory concentrations (MIC) of BB-P 652, BB-P 660 and BB-P 661 were determined by serial two-fold agar dilution method using Steer's apparatus on Mueller-Hinton agar plates against S. aureus (6 strains), cephalothinsensitive gram-negative (Gn-I, 13 strains), cephalothinresistant gram-negative (Gn-II, 6 strains) and Ps. aeruginosa (64 strains). The results are shown in Tables 1 and 2 along with piperacillin and carbenicillin.

E. coli Juhl [1] = experiment: as above; assay type: cell-based; details: Escherichia coli
Method: as §1

K. pneumoniae A9977 = experiment: as above; assay type: cell-based; details: Klebsiella pneumoniae
Method: as §1

P. aeruginosa A15150 = experiment: as above; assay type: cell-based; details: Pseudomonas aeruginosa
Method: as §1

P. aeruginosa A9843 = experiment: as above; assay type: cell-based; details: Pseudomonas aeruginosa
Method: as §1

P. mirabilis A9900 = experiment: as above; assay type: cell-based; details: Proteus mirabilis
Method: as §1

P. vulgaris A9539 = experiment: as above; assay type: cell-based; details: Proteus vulgaris
Method: as §1

S. aureus BX-1633 = experiment: as above; assay type: cell-based; details: Staphylococcus aureus, BX1633
Method: as §1

S. aureus Smith [2] = experiment: as above; assay type: cell-based; details: Staphylococcus aureus
Method: as §1

P. aeruginosa = experiment: MIC, serial two-fold agar dilution, Mueller-Hinton agar (third P. aeruginosa line, strain not given); assay type: cell-based; details: Pseudomonas aeruginosa
Method: as §1

[3] = tested on: Gram-negative (Gn-I), cephalothin-sensitive, 13 strains; experiment: Mean % relative activity to carbenicillin from geometric mean MIC; assay type: cell-based; details: for Mean % relative activity (carbenicillin = 100%): Gram-negative (Gn-I), 13 strains, from geometric mean of MIC
Method: as §1

[4] = tested on: Gram-negative (Gn-II), cephalothin-resistant, 6 strains; experiment: as above; assay type: cell-based; details: for Mean % relative activity (carbenicillin = 100%): Gram-negative (Gn-II), 6 strains, from geometric mean of MIC
Method: as §1

[5] = tested on: Ps. aeruginosa (64 strains); experiment: as above; assay type: cell-based; details: for Mean % relative activity (carbenicillin = 100%): Ps. aeruginosa, 64 strains, from geometric mean of MIC
Method: as §1

S. aureus (6 strains) = experiment: as above; assay type: cell-based; details: from geometric mean of MIC
Method: as §1

S. aureus Smith [6] = experiment: PD50 (mice, im); assay type: in vivo; details: Staphylococcus aureus
E. coli Juhl [7] = experiment: PD50 (mice, im); assay type: in vivo; details: Escherichia coli
Ps. aerug. A9843 = experiment: PD50 (mice, im); assay type: in vivo; details: for ED50: Mus musculus
[8] = Blood Level (im, 20mg/kg); assay type: in vivo; details: for half-life / Cmax: blood; for Cmax: read-out: Blood Level peak conc.
gram-positive bacteria = experiment: In vitro activity against gram-positive bacteria (summary of MIC); assay type: cell-based; details: in words
Method: as §1

gram-negative bacteria = experiment: In vitro gram-negative activity of the isomers (summary of MIC); assay type: cell-based; details: in words
Method: as §1

Pseudomonas = experiment: Antipseudomonal activity of HPLC fractions; assay type: cell-based; details: fractions of preparative HPLC of crude BB-P661
Source text: The result is shown below:

[9] = E. coli Juhl, agar dilution, Mueller-Hinton agar, read-out: MIC
[10] = P. aeruginosa A9843, agar dilution, Mueller-Hinton agar, read-out: MIC

Structure (SMILES) | MIC (E. cloacae A9656) [µg/mL] | MIC (E. coli Juhl [1]; [9]) [µg/mL] | MIC (K. pneumoniae A9977) [µg/mL] | MIC (P. aeruginosa A15150) [µg/mL] | MIC (P. aeruginosa A9843; [10]) [µg/mL] | MIC (P. mirabilis A9900) [µg/mL] | MIC (P. vulgaris A9539) [µg/mL] | MIC (S. aureus BX-1633) [µg/mL] | MIC (S. aureus Smith [2]) [µg/mL] | MIC (P. aeruginosa) [µg/mL] | Mean % relative activity (carbenicillin = 100%) [3] [%] | Mean % relative activity (carbenicillin = 100%) [4] [%] | Mean % relative activity (carbenicillin = 100%) [5] [%] | Mean % relative activity (carbenicillin = 100%) (S. aureus (6 strains)) [%] | ED50 (S. aureus Smith [6]) [mg/kg] | ED50 (E. coli Juhl [7]) [mg/kg] | ED50 (Ps. aerug. A9843) [mg/kg] | half-life ([8]; im, 20 mg/kg) [min] | Cmax ([8]; im, 20 mg/kg, im) [ng/mL] | activity against gram-positive bacteria, compared with each other (gram-positive bacteria) | further results
CC1(C)S[C@@H]2[C@H](NC(=O)C(C(=O)O)c3ccccc3)C(=O)N2[C@H]1C(=O)O (some centres unmarked) [carbenicillin, reference compound] | 1.6 (≈ 4.23 µM) | 3.1 (≈ 8.19 µM) | 1.6 (≈ 4.23 µM) | 25 (≈ 66.1 µM) | 100 (≈ 264 µM) | 0.8 (≈ 2.11 µM) | 1.6 (≈ 4.23 µM) | 3.1 (≈ 8.19 µM) | 0.2 (≈ 0.529 µM) | > 100 | – | – | – | – | – | – | – | – | – | – | –
CCN1CCN(C(=O)NC(C(=O)N[C@@H]2C(=O)N3[C@@H]2SC(C)(C)[C@@H]3C(=O)O)c2ccc(O)c(O)c2)C(=O)C1=O (mixture of isomers) [BB-P 652, Sodium 6-[DL-α-(4-ethyl-2,3-dioxo-1-piperazinocarboxamido)-α-3,4-dihydroxyphenylacetamido]penicillanate] | 1.6 | 0.8 | 0.05 | 50 | – | 0.8 | 0.8 | 12.5 | 6.3 | 6.3 | 1780 | 112 | 271 | 25 | 4.5 | 1.8 | 30 | 32 | 8300 | almost as active as each other | MIC (P. aeruginosa A9843; A9843): 3.1 µg/mL; Blood Level half life ([8]; im, 20 mg/kg): 39 min; Blood Level peak conc. ([8]; im, 20 mg/kg): 4500 ng/mL; potency against gram-positive bacteria, compared with piperacillin (gram-positive bacteria): less potent than piperacillin
CCN1CCN(C(=O)N[C@H](C(=O)N[C@@H]2C(=O)N3[C@@H]2SC(C)(C)[C@@H]3C(=O)O)c2ccc(O)c(O)c2)C(=O)C1=O [BB-P 660, Sodium 6-[L-α-(4-ethyl-2,3-dioxo-1-piperazinocarboxamido)-α-3,4-dihydroxyphenylacetamido]penicillanate] | 12.5 | 6.3 | 0.8 | > 100 | > 100 | 12.5 | > 100 | 12.5 | 6.3 | > 100 | 200 | 6 | 26 | 22 | 7.3 | 7.2 | > 100 | 39 | 4000 | almost as active as each other | potency against gram-positive bacteria, compared with piperacillin (gram-positive bacteria): less potent than piperacillin; gram-negative activity, compared among the three isomers (gram-negative bacteria): considerably decreased activity
CCN1CCN(C(=O)N[C@@H](C(=O)N[C@@H]2C(=O)N3[C@@H]2SC(C)(C)[C@@H]3C(=O)O)c2ccc(O)c(O)c2)C(=O)C1=O [BB-P 661, Sodium 6-[D-α-(4-ethyl-2,3-dioxo-1-piperazinocarboxamido)-α-(3,4-dihydroxyphenyl)acetamido]penicillinate] | 1.6 | 0.4 | 0.025 | 12.5 | 0.8 | 0.4 | 0.4 | 12.5 | 6.3 | 0.8 | 3030 | 178 | 418 | 22 | 6.25 | 1.8 | 25 | 28 | 4000 | almost as active as each other | times more active than piperacillin against cephalothin-sensitive gram-negative organisms ([3]; versus piperacillin): about 8 times; activity compared with piperacillin against cephalothin-resistant strains ([4]; in words): slightly less active; activity compared with piperacillin against Pseudomonas ([5]; in words): slightly less active; potency against gram-positive bacteria, compared with piperacillin (gram-positive bacteria): less potent than piperacillin; gram-negative activity, compared among the three isomers (gram-negative bacteria): the most active of the three isomers; antipseudomonal activity (Pseudomonas): exhibited antipseudomonal activity
CCN1CCN(C(=O)N[C@@H](C(=O)N[C@@H]2C(=O)N3[C@@H]2SC(C)(C)[C@@H]3C(=O)O)c2ccccc2)C(=O)C1=O [piperacillin, reference compound] | 1.6 (≈ 3.09 µM) | – | 0.8 (≈ 1.55 µM) | 3.1 (≈ 5.99 µM) | 6.3 (≈ 12.2 µM) | 0.8 (≈ 1.55 µM) | 0.4 (≈ 0.773 µM) | 3.1 (≈ 5.99 µM) | 0.8 (≈ 1.55 µM) | 25 (≈ 48.3 µM) | 360 | 224 | 637 | 56 | 0.8 | 3.3 | 45 | 29 | 4900 | – | MIC (E. coli Juhl [1]): 1.6 µg/mL (≈ 3.09 µM); PD50 (Ps. aerug. A9843; listed as B-P 606): 35 mg/kg and 25 mg/kg and 40 mg/kg; half-life ([8]; sc, 20 mg/kg, route: sc (footnote 2)): 44 min; Blood Level peak conc. ([8]; im, listed as B-P 606, 20 mg/kg): 6200 ng/mL and 9000 ng/mL; Blood Level half life ([8]; route: sc (footnote 2), listed as B-P 606, 20 mg/kg): 30 min
